Test: Photobleaching of biotinylated fluorophores on avidin-coated magnetic particles, epifluorescent microscope
Assay type: physicochemical
Conditions: bound to 1.3 μm avidin-coated magnetic particles, constant excitation, images every 30 seconds
Protocol: FIG. 6 illustrates a photobleaching profile of biotinylated fluorophores, in accordance with various embodiments.
In one specific, non-limiting example, the photobleaching of commercially available biotin-4-carboxyfluorescein (CF-biotin), and biotin-squaraine rotaxane (SQR-biotin) was examined by measuring the half-life of each of the probes. The dyes were incubated in excess with 1.3 μm magnetic particles coated in avidin. Following the incubation, the particles were washed of any unbound fluorophore, and the samples were then imaged on an epifluorescent microscope. The samples remained under constant excitation and images were captured every 30 seconds. Using ImageJ software, a region of interest (ROI) was drawn around the imaged magnetic particles and the mean pixel intensity was measured for each image.

Substance: biotin-4-carboxyfluorescein [CF-biotin]
- photobleaching profile (fluorescence intensity versus time): dramatic photobleaching

— patent US8273875B2, “High performance luminescent compounds” (University of Notre Dame du Lac, priority 2009, dated 2012)
